In patent US11913884B2, “Visible light-activated dyes and methods of use thereof” (William Marsh Rice University, priority 2019, dated 2024):

Experiments:
[1] = Singlet oxygen quantum yield determination with DPBF; format: physicochemical; conditions: DCM, irradiation 615/30 nm, relative to methylene blue
From the text: To determine whether a minimal one atom sulfur-for-oxygen substitution within fluorophores can lead to fluorescence quenching, thio-caged Nile Red (SNile Red, FIG. 1) was synthesized, in which a carbonyl group was replaced with a thiocarbonyl moiety. Treatment of Nile Red with Lawesson's reagent in refluxing benzene produced the desired SNile Red in a yield of 40%. […] Irradiation of SNile Red with red light (615 nm, 0.4 μW cm-2) led to the regeneration of fluorescent Nile Red in a high yield (FIG. 2A). […] The A556/A652 value, representing the ratio of the absorbance maxima of Nile Red and SNile Red, increased from 0.25 to 30 after desulfuration reaction (FIG. 2B). Upon irradiation with red light, the fluorescence intensity of the desulfurated material at 626 nm increased 280-fold, accompanied by a change in fluorescence from dark to red (FIG. 2C). To evaluate the proper light source for SNile Red photoactivation, SNile Red was irradiated with either 470 nm, 615 nm, or 850 nm light for different times and fluorescence intensities at 626 nm were recorded. […] To further characterize the photoactivated product of SNile Red, ^1H NMR and ESI-MS spectral changes were measured in the process of photoactivation (FIG. 2A). […]
Singlet oxygen quantum yields were calculated according to the literature (Bonacin et al., 2009, Adarsh et al., 2010, and Li et al., 2013). […]

[2] = system: differentiated 3T3-L1 adipocytes; assay: Photoactivation and photobleaching in living adipocytes (CLSM); format: cell-based
From the text: Super-resolution imaging based on sequential imaging of a specific region of labeled tissue or cell culture relies on the ability to modulate the fluorescence of fluorophores between dark and bright states (Bates et al., 2007, Sengupta et al., 2014). […] Furthermore, the photoactivation of SNile Red can be achieved using visible light, affording lower phototoxicity and better tissue penetration than use of UV light. […] A 488 nm laser was utilized to activate SNile Red, while a 561 nm laser was used for photobleaching. […] Following irradiation with the 488-nm laser for 80 s, a five-fold increase of fluorescence intensity was detected. Subsequently, photobleaching was performed in the same cells using the 561-nm laser. As shown in FIGS. 13B & 13D, the fluorescence intensity decayed to 10% of its maximum within 360 s continuous scanning. This photoswitching flexibility holds promise for SNile Red utilization in further photoactivatable localization microscopy (PALM) studies. Next, the utility of SNile Red for performing super-resolution imaging of lipid droplets was explored. […] Compared to the conventional widefield fluorescence image (FIG. 13B) and Differential interference contrast (DIC) image (FIGS. 13A-B), the PALM reconstruction outlines a pair of lipid droplets with a resolution beyond the optical diffraction limit (FIGS. 13B &13C). […]

singlet oxygen quantum yield [1]: 0.36
SMILES: CCN(CC)c1ccc2nc3c4ccccc4c(=S)cc-3oc2c1 [SNile Red]
fluorescence intensity after photobleaching, of its maximum ([2]; 561-nm laser, within 360 s continuous scanning): 10%
increase of fluorescence intensity in cells ([2]; irradiation with 488-nm laser for 80 s): five-fold
